Data from PubChem BioAssay AID743151 (Broad Institute, 2013).
Calls of active or inactive are those of the source.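 Rule for the calls: active = IC50 under 100 nM in each of the cell lines carrying a mutated TP53 gene; inactive = the rest.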

Experiments:
Experiment in all cases: viability loss in TP53-mutant tumour panel – cell-based, HeLa, COLO741, H2122, CellTiter-Glo, dry powder, dose response (AID 743151)
[1] = system: H2122 TP53-mutant viability, CellTiter-Glo, 48 h; conditions: measured here: H2122 viability IC50
[2] = system: COLO741 TP53-mutant viability, CellTiter-Glo, 48 h; conditions: measured here: COLO741 viability IC50
[3] = system: HeLa TP53-mutant viability, CellTiter-Glo, 48 h

Row | SMILES | IC50 [1] | IC50 [2] | IC50 [3]
1 | C[C@@H]1CC(=O)NN=C1c1ccc(C2CCCCC2)cc1 | 0.0287 µM | 0.0113 µM | 0.00727 µM
2 | COc1cc2c(cc1OC)-c1cc(=Nc3c(C)cc(C)cc3C)n(C)c(=O)n1CC2 | > 10 µM | > 10 µM | > 10 µM (inactive)
3 | CCN(CC)c1ccc(C2=NNC(=O)CC2C)cc1[N+](=O)[O-] (stereo unspecified) | 0.0134 µM | 0.012 µM | 0.00665 µM
4 | C[C@@H]1CC(=O)NN=C1c1ccc(F)c(F)c1 | 0.0462 µM | 0.0333 µM | 0.0224 µM
5 | C[C@H]1CC(=O)NN=C1c1ccc(N2CCOCC2)c(F)c1 | > 10 µM | > 10 µM | > 10 µM (inactive)
6 | CCN1N=C(c2ccc(N(CC)CC)cc2)[C@H](C)CC1=O | > 10 µM | > 10 µM | > 10 µM (inactive)
7 | C[C@@H]1CC(=O)NN=C1c1ccc(N2CCOCC2)c(F)c1 | 0.00317 µM | 0.00288 µM | 0.00159 µM
8 | C[C@@H]1CC(=O)NN=C1c1ccc(-c2cncnc2)cc1 | 0.0365 µM | 0.0196 µM | 0.0125 µM
9 | C[C@@H]1CC(=O)NN=C1c1ccc(N2CCOCC2)cc1 | 0.03 µM | 0.02 µM | 0.0132 µM
10 | CC(=O)Nc1ccc(C2=NNC(=O)C[C@H]2C)cc1 | 0.0127 µM | 0.00765 µM | 0.00493 µM
11 | O=C1CN2Cc3c(ccc(Cl)c3Cl)N=C2N1 | 0.0171 µM | 0.012 µM | 0.00765 µM
12 | C[C@@H]1CC(=O)NN=C1c1ccc(Cl)cc1 | 0.0799 µM | 0.0426 µM | 0.0327 µM
